Columns and labels:
Assay type in all cases: cell-based
HER2 S310F [1] = target: T1, HER2 S310F (Homo sapiens, UniProt P04626, S310F); experiment: BaF3 cell proliferation assay, HER2 S310F (Table B); details: potency code, 3 days, CellTiterGlo, read-out: HER2 S310F (Activity for Inhibiting HER2)
T1 construct: expressed in transfected cells; host or cells: BaF3 (murine pro-B)

HER2 YVMA [2] = target: T2, HER2 YVMA (Homo sapiens, UniProt P04626, INS775YVMA); experiment: Activity for inhibiting HER2 (Table B), HER2 YVMA; details: read-out: HER2 YVMA, potency code (IC50)
T2 construct: expressed in transfected cells; host or cells: BaF3 (murine pro-B)
T2 sequence (P04626 with tags, fused parts or gaps INS775YVMA): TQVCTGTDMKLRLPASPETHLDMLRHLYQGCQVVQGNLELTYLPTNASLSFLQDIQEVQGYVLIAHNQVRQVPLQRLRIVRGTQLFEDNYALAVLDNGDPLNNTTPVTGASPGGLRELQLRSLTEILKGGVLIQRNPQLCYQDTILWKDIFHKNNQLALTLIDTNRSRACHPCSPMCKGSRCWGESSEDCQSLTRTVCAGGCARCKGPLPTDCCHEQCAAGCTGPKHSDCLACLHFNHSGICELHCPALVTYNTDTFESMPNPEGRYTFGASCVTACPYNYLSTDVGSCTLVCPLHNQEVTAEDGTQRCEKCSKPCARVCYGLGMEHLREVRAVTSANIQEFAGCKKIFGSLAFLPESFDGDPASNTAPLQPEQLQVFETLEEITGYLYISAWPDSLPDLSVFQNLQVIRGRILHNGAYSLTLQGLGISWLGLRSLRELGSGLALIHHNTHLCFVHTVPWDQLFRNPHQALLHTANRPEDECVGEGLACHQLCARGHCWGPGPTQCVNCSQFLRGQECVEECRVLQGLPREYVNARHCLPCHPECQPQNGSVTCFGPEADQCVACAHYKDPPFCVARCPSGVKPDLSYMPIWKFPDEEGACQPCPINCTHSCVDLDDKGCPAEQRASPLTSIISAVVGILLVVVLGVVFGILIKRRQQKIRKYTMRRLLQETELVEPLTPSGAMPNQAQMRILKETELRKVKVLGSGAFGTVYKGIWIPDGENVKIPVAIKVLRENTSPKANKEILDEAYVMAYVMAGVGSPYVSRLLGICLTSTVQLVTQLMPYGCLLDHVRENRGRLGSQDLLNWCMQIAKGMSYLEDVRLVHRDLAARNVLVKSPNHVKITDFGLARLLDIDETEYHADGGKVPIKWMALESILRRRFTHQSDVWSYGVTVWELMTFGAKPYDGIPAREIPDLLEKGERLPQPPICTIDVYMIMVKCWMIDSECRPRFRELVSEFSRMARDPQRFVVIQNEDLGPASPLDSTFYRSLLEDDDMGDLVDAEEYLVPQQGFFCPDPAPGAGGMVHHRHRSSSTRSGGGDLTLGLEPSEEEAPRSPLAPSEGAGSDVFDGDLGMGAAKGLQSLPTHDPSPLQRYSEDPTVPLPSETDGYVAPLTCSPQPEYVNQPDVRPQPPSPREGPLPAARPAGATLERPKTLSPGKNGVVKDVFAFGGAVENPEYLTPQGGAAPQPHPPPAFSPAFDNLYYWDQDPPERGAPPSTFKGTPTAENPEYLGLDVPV
Method: (§1) EC50 values were determined with the same application.

HER2 YVMA [3] = target: T2, HER2 YVMA; experiment: BaF3 cell proliferation assay, HER2 YVMA (Table B); details: potency code, 3 days, CellTiterGlo, read-out: HER2 YVMA (Activity for Inhibiting HER2)
EGFR V3 [4] = target: T3, EGFR V3 (Homo sapiens, UniProt P00533, DELINS30-297G); experiment: Activity for inhibiting EGFR (Table A), EGFR V3 (EGFR-Viii); details: read-out: EGFR V3, potency code (IC50)
T3 construct: expressed in transfected cells; host or cells: BaF3 (murine pro-B), retroviral pMXs-IRES-Blasticidin
T3 sequence (P00533 with tags, fused parts or gaps DELINS30-297G): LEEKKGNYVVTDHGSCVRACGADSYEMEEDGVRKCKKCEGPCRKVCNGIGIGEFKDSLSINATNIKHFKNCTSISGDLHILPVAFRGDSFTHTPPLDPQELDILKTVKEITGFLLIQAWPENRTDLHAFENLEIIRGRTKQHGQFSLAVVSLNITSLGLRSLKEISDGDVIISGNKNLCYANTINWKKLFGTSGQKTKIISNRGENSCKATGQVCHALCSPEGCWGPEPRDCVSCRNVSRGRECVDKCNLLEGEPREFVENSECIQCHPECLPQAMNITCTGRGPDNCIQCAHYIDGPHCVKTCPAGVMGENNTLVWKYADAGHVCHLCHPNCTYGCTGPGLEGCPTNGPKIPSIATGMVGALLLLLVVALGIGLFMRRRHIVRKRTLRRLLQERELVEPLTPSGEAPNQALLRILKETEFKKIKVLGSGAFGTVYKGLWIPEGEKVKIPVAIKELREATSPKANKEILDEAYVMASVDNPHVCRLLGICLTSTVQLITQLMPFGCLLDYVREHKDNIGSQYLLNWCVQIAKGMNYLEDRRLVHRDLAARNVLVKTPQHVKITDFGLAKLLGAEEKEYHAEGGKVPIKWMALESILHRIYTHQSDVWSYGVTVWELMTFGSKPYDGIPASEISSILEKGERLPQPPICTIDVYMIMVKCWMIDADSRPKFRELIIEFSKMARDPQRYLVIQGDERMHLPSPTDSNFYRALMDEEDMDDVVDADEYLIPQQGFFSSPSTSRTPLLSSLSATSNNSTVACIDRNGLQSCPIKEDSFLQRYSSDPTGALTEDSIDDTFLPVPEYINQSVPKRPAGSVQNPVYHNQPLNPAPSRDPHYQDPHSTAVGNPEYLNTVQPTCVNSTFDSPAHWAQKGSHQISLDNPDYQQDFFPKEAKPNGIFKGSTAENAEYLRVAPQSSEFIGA

EGFR WT [5] = target: T4, EGFR WT (Homo sapiens, UniProt P00533); experiment: Activity for inhibiting EGFR (Table A), EGFR WT; details: read-out: EGFR WT, potency code (IC50)
T4 sequence (P00533 25-1210 N540K): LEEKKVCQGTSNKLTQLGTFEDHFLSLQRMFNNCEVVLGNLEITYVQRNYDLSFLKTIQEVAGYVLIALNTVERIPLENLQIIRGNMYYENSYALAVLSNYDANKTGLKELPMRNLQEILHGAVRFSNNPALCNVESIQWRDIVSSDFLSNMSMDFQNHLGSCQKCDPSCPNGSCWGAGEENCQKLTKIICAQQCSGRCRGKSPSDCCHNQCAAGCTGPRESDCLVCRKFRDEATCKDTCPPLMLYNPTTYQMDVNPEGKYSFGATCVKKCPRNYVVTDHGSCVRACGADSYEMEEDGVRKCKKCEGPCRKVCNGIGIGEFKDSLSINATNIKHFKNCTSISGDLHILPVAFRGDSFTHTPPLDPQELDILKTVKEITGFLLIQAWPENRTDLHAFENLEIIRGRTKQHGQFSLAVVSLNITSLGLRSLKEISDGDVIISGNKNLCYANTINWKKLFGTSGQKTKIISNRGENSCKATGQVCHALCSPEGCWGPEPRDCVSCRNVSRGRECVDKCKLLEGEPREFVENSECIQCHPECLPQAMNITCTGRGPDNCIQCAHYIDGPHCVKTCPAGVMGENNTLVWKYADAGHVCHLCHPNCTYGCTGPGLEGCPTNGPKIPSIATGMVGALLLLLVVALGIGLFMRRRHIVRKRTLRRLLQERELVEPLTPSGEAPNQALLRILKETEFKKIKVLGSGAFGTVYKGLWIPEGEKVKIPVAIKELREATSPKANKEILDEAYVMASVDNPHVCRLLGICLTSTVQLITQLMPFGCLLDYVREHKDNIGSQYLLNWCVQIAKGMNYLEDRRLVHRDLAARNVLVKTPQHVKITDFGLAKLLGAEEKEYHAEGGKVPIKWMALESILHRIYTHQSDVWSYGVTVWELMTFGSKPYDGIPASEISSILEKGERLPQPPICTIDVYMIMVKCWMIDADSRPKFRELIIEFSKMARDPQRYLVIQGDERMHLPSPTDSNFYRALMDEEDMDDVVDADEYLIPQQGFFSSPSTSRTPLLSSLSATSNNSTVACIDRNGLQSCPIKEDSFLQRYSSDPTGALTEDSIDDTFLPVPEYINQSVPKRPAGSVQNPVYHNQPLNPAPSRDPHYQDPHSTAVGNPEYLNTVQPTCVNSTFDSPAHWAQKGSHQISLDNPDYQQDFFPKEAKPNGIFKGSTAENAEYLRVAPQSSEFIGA

EGFR V3 [6] = target: T3, EGFR V3; experiment: BaF3 cell proliferation assay, EGFR V3 (Table A); details: potency code, 3 days, CellTiterGlo, read-out: EGFR V3 (Activity for Inhibiting EGFR)
Outline: (§2)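 Steps: HEK 293T transfected with pMXs-IRES-Blasticidin kinase vector plus Gag-Pol and VSV-G; virus harvested at 24 and 48 hrs; BaF3 infected twice by centrifugation, Blasticidin-selected, then grown without IL-3. Proliferation EC50 measured.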

HER2 S310F [7] = target: T1, HER2 S310F; experiment: Activity for inhibiting HER2 (Table B), HER2 S310F; details: read-out: HER2 S310F, potency code (IC50)
Method: as §1

EGFR WT [8] = target: T4, EGFR WT; experiment: BaF3 cell proliferation assay, EGFR WT (Table A); details: potency code, 3 days, CellTiterGlo, read-out: EGFR WT (Activity for Inhibiting EGFR)
Outline: as §2

T1 sequence (P04626 23-1255 S310F): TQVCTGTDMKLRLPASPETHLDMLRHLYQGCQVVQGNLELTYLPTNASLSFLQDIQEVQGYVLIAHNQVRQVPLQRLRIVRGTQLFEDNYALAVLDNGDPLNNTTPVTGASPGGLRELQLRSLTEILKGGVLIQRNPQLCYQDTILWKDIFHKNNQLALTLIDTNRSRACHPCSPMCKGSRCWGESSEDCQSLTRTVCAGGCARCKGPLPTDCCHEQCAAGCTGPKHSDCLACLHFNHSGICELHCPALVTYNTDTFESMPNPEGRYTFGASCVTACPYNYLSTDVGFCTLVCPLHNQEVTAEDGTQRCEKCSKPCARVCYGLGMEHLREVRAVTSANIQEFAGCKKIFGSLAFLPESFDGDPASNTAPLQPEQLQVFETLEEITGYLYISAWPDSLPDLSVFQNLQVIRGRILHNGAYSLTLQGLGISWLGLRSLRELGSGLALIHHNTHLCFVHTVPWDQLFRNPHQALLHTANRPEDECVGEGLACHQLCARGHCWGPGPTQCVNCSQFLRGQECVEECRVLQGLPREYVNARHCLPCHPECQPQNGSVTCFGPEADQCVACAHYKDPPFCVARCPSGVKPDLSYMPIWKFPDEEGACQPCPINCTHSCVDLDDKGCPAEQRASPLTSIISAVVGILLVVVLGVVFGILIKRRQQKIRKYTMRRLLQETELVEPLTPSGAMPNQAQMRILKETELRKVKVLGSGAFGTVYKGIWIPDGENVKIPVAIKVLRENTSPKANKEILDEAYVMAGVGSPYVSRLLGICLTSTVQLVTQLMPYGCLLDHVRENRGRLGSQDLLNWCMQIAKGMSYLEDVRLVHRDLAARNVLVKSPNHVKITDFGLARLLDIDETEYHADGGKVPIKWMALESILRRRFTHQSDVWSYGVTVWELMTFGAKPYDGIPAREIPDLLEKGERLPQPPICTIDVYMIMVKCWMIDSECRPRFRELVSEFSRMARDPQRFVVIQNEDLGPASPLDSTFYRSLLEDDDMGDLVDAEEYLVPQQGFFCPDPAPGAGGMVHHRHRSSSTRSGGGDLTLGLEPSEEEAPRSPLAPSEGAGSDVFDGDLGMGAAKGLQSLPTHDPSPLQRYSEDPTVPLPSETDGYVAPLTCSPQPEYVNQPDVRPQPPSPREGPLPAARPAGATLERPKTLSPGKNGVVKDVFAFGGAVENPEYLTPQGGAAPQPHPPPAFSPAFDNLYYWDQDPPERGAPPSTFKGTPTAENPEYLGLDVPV

Row | IC50 (HER2 S310F [1]) | IC50 (HER2 YVMA [2]) | IC50 (HER2 YVMA [3]) | IC50 (EGFR V3 [4]) | IC50 (EGFR WT [5]) | IC50 (EGFR V3 [6]) | IC50 (HER2 S310F [7]) | IC50 (EGFR WT [8]) | SMILES
1 | 0.03 to 0.05 µM | 0.05 to 0.1 µM | 0.05 to 0.1 µM | 0.03 to 0.05 µM | 0.3 to 0.5 µM | 0.03 to 0.05 µM | 0.03 to 0.05 µM | 0.3 to 0.5 µM | C=CC(=O)Nc1cc2c(Nc3ccc(OCc4ccccn4)c(Cl)c3)ncnc2cc1C#CC12CCN(CC1)CC2 [compound 126, N-(4-((3-chloro-4-(pyridin-2-ylmethoxy)phenyl)amino)-7-(quinuclidin-4-ylethynyl)quinazolin-6-yl)acrylamide]
2 | 0.1 to 0.2 µM | 0.3 to 0.5 µM | 0.3 to 0.5 µM | 0.1 to 0.2 µM | 0.5 to 1 µM | 0.1 to 0.2 µM | 0.1 to 0.2 µM | 0.5 to 1 µM | C=CC(=O)Nc1cc2c(Nc3ccc(OCc4cccc(C)n4)c(Cl)c3)ncnc2cc1OCCN1CCOCC1 [compound 128]
3 | 0.03 to 0.05 µM | 0.3 to 0.5 µM | 0.3 to 0.5 µM | 0.1 to 0.2 µM | 0.2 to 0.3 µM | 0.1 to 0.2 µM | 0.03 to 0.05 µM | 0.2 to 0.3 µM | C=CC(=O)Nc1cc2c(Nc3ccc(OCc4cccc(F)c4)c(Cl)c3)ncnc2cc1OCCN1CCN(C)CC1 [compound 130]
4 | 0.05 to 0.1 µM | 0.5 to 1 µM | 0.5 to 1 µM | 0.1 to 0.2 µM | 0.2 to 0.3 µM | 0.1 to 0.2 µM | 0.05 to 0.1 µM | 0.2 to 0.3 µM | C=CC(=O)Nc1cc2c(Nc3cc(Cl)c(OCc4cccc(F)c4)cc3F)ncnc2cc1O[C@@H]1CCN(C)C1 [compound 133]
5 | 0.03 to 0.05 µM | 0.3 to 0.5 µM | 0.3 to 0.5 µM | 0.05 to 0.1 µM | 0.2 to 0.3 µM | 0.05 to 0.1 µM | 0.03 to 0.05 µM | 0.2 to 0.3 µM | C=CC(=O)Nc1cc2c(Nc3cc(Cl)c(OCc4cccc(F)c4)cc3F)ncnc2cc1OCCN1CC(OC)C1 [compound 134]
6 | 0.1 to 0.2 µM | 0.3 to 0.5 µM | 0.3 to 0.5 µM | 0.05 to 0.1 µM | 0.3 to 0.5 µM | 0.05 to 0.1 µM | 0.1 to 0.2 µM | 0.3 to 0.5 µM | C=CC(=O)Nc1cc2c(Nc3ccc(OCc4cccc(C)n4)c(Cl)c3)ncnc2cc1OCCN1CC(OC)C1 [compound 135]
7 | 0.03 to 0.05 µM | 0.1 to 0.2 µM | 0.1 to 0.2 µM | 0.1 to 0.2 µM | 0.1 to 0.2 µM | 0.1 to 0.2 µM | 0.03 to 0.05 µM | 0.1 to 0.2 µM | CC#CC(=O)Nc1cc2c(Nc3cc(Cl)c(OCc4cccc(F)c4)cc3F)ncnc2cc1OCCCN1CC(OC)C1 [compound 136, N-(4-((5-chloro-2-fluoro-4-((3-fluorobenzyl)oxy)phenyl)amino)-7-(3-(3-methoxyazetidin-1-yl)propoxy)quinazolin-6-yl)but-2-ynamide]
8 | 0.05 to 0.1 µM | 0.3 to 0.5 µM | 0.3 to 0.5 µM | 0.05 to 0.1 µM | 0.2 to 0.3 µM | 0.05 to 0.1 µM | 0.05 to 0.1 µM | 0.2 to 0.3 µM | C=CC(=O)Nc1cc2c(Nc3ccc(OCc4cccc(C)n4)c(Cl)c3)ncnc2cc1OCCN1CCN(C)CC1 [compound 137]
9 | 0.1 to 0.2 µM | 0.3 to 0.5 µM | 0.3 to 0.5 µM | 0.1 to 0.2 µM | 0.3 to 0.5 µM | 0.1 to 0.2 µM | 0.1 to 0.2 µM | 0.3 to 0.5 µM | C=CC(=O)Nc1cc2c(Nc3ccc(OCc4cccc(C)n4)c(Cl)c3)ncnc2cc1O[C@@H]1CCN(C)C1 [compound 140]
10 | 0.03 to 0.05 µM | 0.3 to 0.5 µM | 0.3 to 0.5 µM | 0.1 to 0.2 µM | 0.1 to 0.2 µM | 0.1 to 0.2 µM | 0.03 to 0.05 µM | 0.1 to 0.2 µM | C=CC(=O)Nc1cc2c(Nc3ccc(OCc4cccc(F)c4)c(Cl)c3)ncnc2cc1O[C@@H]1CCN(C)C1 [compound 141]
11 | 0.3 to 0.5 µM | > 1 µM | > 1 µM | 0.1 to 0.2 µM | 0.5 to 1 µM | 0.1 to 0.2 µM | 0.3 to 0.5 µM | 0.5 to 1 µM | C=CC(=O)Nc1cc2c(Nc3ccc(OCc4ccnc(C)c4)c(Cl)c3)ncnc2cc1OCCN1CCOCC1 [compound 142]
12 | 0.03 to 0.05 µM | 0.1 to 0.2 µM | 0.1 to 0.2 µM | 0.05 to 0.1 µM | 0.2 to 0.3 µM | 0.05 to 0.1 µM | 0.03 to 0.05 µM | 0.2 to 0.3 µM | C=CC(=O)Nc1cc2c(Nc3ccc(OCc4cccc(F)c4)c(Cl)c3)ncnc2cc1OCCN1CC(OC)C1 [compound 143]
13 | 0.03 to 0.05 µM | 0.1 to 0.2 µM | 0.1 to 0.2 µM | 0.1 to 0.2 µM | 0.1 to 0.2 µM | 0.1 to 0.2 µM | 0.03 to 0.05 µM | 0.1 to 0.2 µM | C=CC(=O)Nc1cc2c(Nc3ccc(OCc4cccc(F)c4)c(Cl)c3)ncnc2cc1OCCCN1CC(OC)C1 [compound 144]
14 | 0.03 to 0.05 µM | 0.2 to 0.3 µM | 0.2 to 0.3 µM | 0.05 to 0.1 µM | 0.1 to 0.2 µM | 0.05 to 0.1 µM | 0.03 to 0.05 µM | 0.1 to 0.2 µM | C=CC(=O)Nc1cc2c(Nc3cc(Cl)c(OCc4cccc(F)c4)cc3F)ncnc2cc1OCCN1CCN(C)CC1 [compound 145]

The next lines start with the compound.

Row | SMILES | IC50 (HER2 S310F [1]) | IC50 (HER2 YVMA [2]) | IC50 (HER2 YVMA [3]) | IC50 (EGFR V3 [4]) | IC50 (EGFR WT [5]) | IC50 (EGFR V3 [6]) | IC50 (HER2 S310F [7]) | IC50 (EGFR WT [8])
15 | C=CC(=O)Nc1cc2c(Nc3ccc(OCc4ccccn4)c(Cl)c3)ncnc2cc1OCC1CN(C)C1 [compound 123, N-(4-((3-chloro-4-(pyridin-2-ylmethoxy)phenyl)amino)-7-((1-methylazetidin-3-yl)methoxy)quinazolin-6-yl) Acrylamide] | 0.03 to 0.05 µM | 0.1 to 0.2 µM | 0.1 to 0.2 µM | 0.03 to 0.05 µM | 0.2 to 0.3 µM | 0.03 to 0.05 µM | 0.03 to 0.05 µM | 0.2 to 0.3 µM
16 | C=CC(=O)Nc1cc2c(Nc3ccc(OCc4ccccn4)c(Cl)c3)ncnc2cc1C#CC1CC2(C1)CN(C)C2 [compound 124, N-(4-((3-chloro-4-(pyridin-2-ylmethoxy)phenyl)amino)-7-((2-methyl-2-azaspiro[3.3]heptan-6-yl)ethynyl)quinazolin-6-yl)acrylamide] | 0.03 to 0.05 µM | 0.1 to 0.2 µM | 0.1 to 0.2 µM | 0.03 to 0.05 µM | 0.5 to 1 µM | 0.03 to 0.05 µM | 0.03 to 0.05 µM | 0.5 to 1 µM
17 | C=CC(=O)Nc1cc2c(Nc3ccc(OCc4ccccn4)c(Cl)c3)ncnc2cc1OCCN1CCS(=O)(=O)CC1 [compound 125] | 0.1 to 0.2 µM | > 1 µM | > 1 µM | 0.1 to 0.2 µM | 0.5 to 1 µM | 0.1 to 0.2 µM | 0.1 to 0.2 µM | 0.5 to 1 µM
18 | C=CC(=O)Nc1cc2c(Nc3ccc(Oc4ccc(Cl)c(F)c4)cc3)ncnc2cc1OCCN1CCOCC1 [compound 127] | 0.3 to 0.5 µM | > 1 µM | > 1 µM | 0.05 to 0.1 µM | 0.5 to 1 µM | 0.05 to 0.1 µM | 0.3 to 0.5 µM | 0.5 to 1 µM
19 | C=CC(=O)Nc1cc2c(Nc3ccc(OCc4cccc(C)n4)c(Cl)c3)ncnc2cc1OCCCN1CCOCC1 [compound 129] | 0.03 to 0.05 µM | 0.1 to 0.2 µM | 0.1 to 0.2 µM | 0.1 to 0.2 µM | 0.5 to 1 µM | 0.1 to 0.2 µM | 0.03 to 0.05 µM | 0.5 to 1 µM
20 | C=CC(=O)Nc1cc2c(Nc3cc(Cl)c(OCc4cccc(F)c4)cc3F)ncnc2cc1OCCCN1CC(OC)C1 [compound 131] | 0.05 to 0.1 µM | 0.3 to 0.5 µM | 0.3 to 0.5 µM | 0.2 to 0.3 µM | 0.2 to 0.3 µM | 0.1 to 0.2 µM | 0.05 to 0.1 µM | 0.2 to 0.3 µM
21 | C=CC(=O)Nc1cc2c(Nc3ccc(OCc4cccc(C)n4)c(Cl)c3)ncnc2cc1OCCN1CC2CCC(C1)O2 [compound 132] | 0.3 to 0.5 µM | 0.5 to 1 µM | 0.5 to 1 µM | 0.3 to 0.5 µM | > 1 µM | 0.3 to 0.5 µM | 0.3 to 0.5 µM | > 1 µM
22 | C=CC(=O)Nc1cc2c(Nc3ccc(OCc4cccc(C)n4)c(Cl)c3)ncnc2cc1OCCCN1CC(OC)C1 [compound 138] | 0.03 to 0.05 µM | 0.05 to 0.1 µM | 0.05 to 0.1 µM | 0.05 to 0.1 µM | 0.1 to 0.2 µM | 0.05 to 0.1 µM | 0.03 to 0.05 µM | 0.1 to 0.2 µM
23 | C=CC(=O)Nc1cc2c(Nc3ccc(OCc4cccc(F)c4)c(Cl)c3)ncnc2cc1OCCN1CC2CCC(C1)O2 [compound 139] | 0.03 to 0.05 µM | 0.1 to 0.2 µM | 0.1 to 0.2 µM | 0.1 to 0.2 µM | 0.5 to 1 µM | 0.1 to 0.2 µM | 0.03 to 0.05 µM | 0.5 to 1 µM
24 | CC#CC(=O)Nc1cc2c(Nc3cc(Cl)c(OCc4cccc(F)c4)cc3F)ncnc2cc1OCCN1CCN(C)CC1 [compound 146, N-(4-((5-chloro-2-fluoro-4-((3-fluorobenzyl)oxy)phenyl)amino)-7-(2-(4-methylpiperazin-1-yl)ethoxy)quinazolin-6-yl)but-2-ynamide] | 0.02 to 0.03 µM | 0.05 to 0.1 µM | 0.05 to 0.1 µM | 0.05 to 0.1 µM | 0.05 to 0.1 µM | 0.05 to 0.1 µM | 0.02 to 0.03 µM | 0.05 to 0.1 µM

Source: US11034672B1, “Tyrosine kinase inhibitor compositions, methods of making and methods of use” (Black Diamond Therapeutics, Inc., priority 2018, dated 2021)
